# pIC50: −log10 of the molar value. Read-outs that look alike come from different tables or passages of the source.
# Experiments:
# [1] = biological target: MST1 (Homo sapiens (Human), UniProt Q13043); assay: MST1 biochemical LanthaScreen Eu Kinase Binding Assay
# Description: (§1) MST1 and MST2 biochemical LanthaScreen Eu Kinase Binding Assay was based on the binding and displacement of kinase tracer to the kinase of interest. Compounds in 1000×DMSO stock solution was dispensed using automated dispensing system (Labcyte) to 384 well Corning Microplate at 15 nL, 5 uL of Kinase buffer A was added to each well. Plates were shaken and incubated for 1 min to ensure well dissolution of compounds.
# [2] = biological target: MST2 (Homo sapiens (Human), UniProt Q13188); assay: MST2 biochemical LanthaScreen Eu Kinase Binding Assay
# Description: as §1
# [3] = read-out: Kinase Binding assay-MST1 IC50
# [4] = read-out: Kinase Binding assay-MST2 IC50
# MST2, sequence (Q13188 whole entry): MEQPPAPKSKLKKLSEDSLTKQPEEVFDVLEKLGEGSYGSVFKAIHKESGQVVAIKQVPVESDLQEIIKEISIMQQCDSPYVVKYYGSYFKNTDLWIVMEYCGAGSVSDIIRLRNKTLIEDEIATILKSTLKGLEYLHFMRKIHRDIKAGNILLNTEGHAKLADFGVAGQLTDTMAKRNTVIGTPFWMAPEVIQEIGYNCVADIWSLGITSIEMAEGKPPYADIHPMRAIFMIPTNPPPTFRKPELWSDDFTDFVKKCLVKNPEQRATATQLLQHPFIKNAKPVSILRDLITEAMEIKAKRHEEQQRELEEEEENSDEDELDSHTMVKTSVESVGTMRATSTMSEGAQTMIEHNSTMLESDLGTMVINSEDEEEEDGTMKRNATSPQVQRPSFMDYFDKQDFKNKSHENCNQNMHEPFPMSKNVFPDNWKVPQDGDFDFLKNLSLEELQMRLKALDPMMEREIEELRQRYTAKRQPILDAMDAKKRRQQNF
# MST1, sequence (Q13043 whole entry): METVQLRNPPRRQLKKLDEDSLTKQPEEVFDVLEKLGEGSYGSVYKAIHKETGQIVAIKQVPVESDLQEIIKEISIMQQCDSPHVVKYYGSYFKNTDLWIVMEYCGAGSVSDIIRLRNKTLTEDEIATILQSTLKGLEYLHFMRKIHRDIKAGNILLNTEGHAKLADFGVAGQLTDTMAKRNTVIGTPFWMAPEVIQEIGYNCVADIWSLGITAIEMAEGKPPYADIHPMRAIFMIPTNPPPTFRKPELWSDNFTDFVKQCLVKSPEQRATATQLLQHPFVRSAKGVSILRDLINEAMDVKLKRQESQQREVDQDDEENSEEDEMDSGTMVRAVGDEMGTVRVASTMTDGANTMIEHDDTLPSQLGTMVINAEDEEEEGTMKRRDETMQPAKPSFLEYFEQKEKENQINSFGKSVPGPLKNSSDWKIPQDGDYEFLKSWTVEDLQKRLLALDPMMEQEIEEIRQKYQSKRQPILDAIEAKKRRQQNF
"pIC50 [2, 4]",SMILES,"pIC50 [1, 3]",pIC50 [2],pIC50 [1]
–,CCOc1cc2ncc(C#N)c(Nc3ccc(OCc4ncccc4OC)c(Cl)c3)c2cc1NC(=O)CCCN(C)C [Example 18],> 7.00,6.00 to 7.00,–
> 7.00,CCOc1cc2ncc(C#N)c(Nc3ccc(OCc4ncccc4C#N)c(Cl)c3)c2cc1NC(=O)CCCN(C)C [Example 19],> 7.00,–,–
–,CCOc1cc2ncc(C#N)c(Nc3ccc(OCc4ncccc4C)cc3)c2cc1NC(=O)CCCN(C)C [Example 20],> 7.00,6.00 to 7.00,–
–,CCOc1cc2ncc(C#N)c(Nc3ccc(OCc4ncccc4C)c(C)c3)c2cc1NC(=O)CCCN(C)C [Example 21],> 7.00,6.00 to 7.00,–
> 7.00,CCOc1cc2ncc(C#N)c(Nc3ccc(OCc4ncccc4C)cc3F)c2cc1NC(=O)CCCN(C)C [Example 23],> 7.00,–,–
> 7.00,CCOc1cc2ncc(C#N)c(Nc3ccc(OCc4ncccc4C)c(Br)c3)c2cc1NC(=O)CCCN(C)C [Example 24],> 7.00,–,–
> 7.00,"CCOc1cc2ncc(C#N)c(Nc3ccc(OCc4ncccc4C)cc3Cl)c2cc1NC(=O)CCCN(C)C [Example 25, N-(4-((2-chloro-4-((3-methyl-pyridin-2-yl)methoxy)phenyl)amino)-3-cyano-7-ethoxyquinolin-6-yl)-4-(dimethylamino)butanamide]",> 7.00,–,–
> 7.00,CCOc1cc2ncc(C#N)c(Nc3cc(Cl)c(OCc4ncccc4C)c(Cl)c3)c2cc1NC(=O)CCCN(C)C [Example 26],> 7.00,–,–
–,CCOc1cc2ncc(C#N)c(Nc3ccc(OCc4ncccc4C)c(C#N)c3)c2cc1NC(=O)CCCN(C)C [Example 27],–,5.00 to 6.00,6.00 to 7.00
> 7.00,CCOc1cc2ncc(C#N)c(Nc3ccc(OCc4ncccc4C)c(OC)c3)c2cc1NC(=O)CCCN(C)C [Example 28],> 7.00,–,–
–,CCOc1cc2ncc(C#N)c(Nc3ccc(OCc4ncccc4C)cc3C(F)(F)F)c2cc1NC(=O)CCCN(C)C [Example 29],–,6.00 to 7.00,6.00 to 7.00
–,CCOc1cc2ncc(C#N)c(Nc3ccc(OCc4ncccc4C)cc3C#N)c2cc1NC(=O)CCCN(C)C [Example 30],> 7.00,6.00 to 7.00,–
–,CCOc1cc2ncc(C#N)c(Nc3cc(C)c(OCc4ncccc4C)c(C)c3)c2cc1NC(=O)CCCN(C)C [Example 32],> 7.00,6.00 to 7.00,–
> 7.00,CCOc1cc2ncc(C#N)c(Nc3ccc(OCc4ncccc4C)c(C)c3C)c2cc1NC(=O)CCCN(C)C [Example 33],> 7.00,–,–
> 7.00,CCOc1cc2ncc(C#N)c(Nc3cc(C)c(OCc4ncccc4C)cc3C)c2cc1NC(=O)CCCN(C)C [Example 34],> 7.00,–,–
–,CCOc1cc2ncc(C#N)c(Nc3ccc(OCc4cc(C#N)ccn4)c(Cl)c3)c2cc1NC(=O)CCCN(C)C [Example 36],6.00 to 7.00,6.00 to 7.00,–
–,CCOc1cc2ncc(C#N)c(Nc3ccc(OCc4cc(OC)ccn4)c(Cl)c3)c2cc1NC(=O)CCCN(C)C [Example 37],> 7.00,6.00 to 7.00,–
–,CCOc1cc2ncc(C#N)c(Nc3ccc(OCc4nccn4CC)c(Cl)c3)c2cc1NC(=O)CCCN(C)C [Example 38],6.00 to 7.00,6.00 to 7.00,–
–,CCOc1cc2ncc(C#N)c(Nc3ccc(OCc4ncc(C)o4)c(Cl)c3)c2cc1NC(=O)CCCN(C)C [Example 39],> 7.00,6.00 to 7.00,–

"pIC50 [2, 4]",SMILES,"pIC50 [1, 3]",pIC50 [2],pIC50 [1]
–,CCOc1cc2ncc(C#N)c(Nc3ccc(OCc4cc(C5CC5)on4)c(Cl)c3)c2cc1NC(=O)CCCN(C)C [Example 40],6.00 to 7.00,6.00 to 7.00,–
> 7.00,CCOc1cc2ncc(C#N)c(Nc3ccc(OCc4cn5cccc(C)c5n4)c(Cl)c3)c2cc1NC(=O)CCCN(C)C [Example 41],> 7.00,–,–
–,CCOc1cc2ncc(C#N)c(Nc3ccc(OCc4nc5ccccc5nc4C)c(Cl)c3)c2cc1NC(=O)CCCN(C)C [Example 42],> 7.00,6.00 to 7.00,–
–,CCOc1cc2ncc(C#N)c(Nc3ccc(OCc4cnc5c(c4)OCCO5)c(Cl)c3)c2cc1NC(=O)CCCN(C)C [Example 43],6.00 to 7.00,5.00 to 6.00,–
–,CCOc1cc2ncc(C#N)c(Nc3ccc(OCc4ncccc4C4CC4)c(Cl)c3)c2cc1NC(=O)CCCN(C)C [Example 44],6.00 to 7.00,6.00 to 7.00,–
> 7.00,CCOc1cc2ncc(C#N)c(Nc3ccc(OCc4ncccc4CC)c(Cl)c3)c2cc1NC(=O)CCCN(C)C [Example 45],> 7.00,–,–
–,CCOc1cc2ncc(C#N)c(Nc3ccc(OCc4ccn(C)n4)c(Cl)c3)c2cc1NC(=O)CCCN(C)C [Example 67],6.00 to 7.00,6.00 to 7.00,–
> 7.00,CCOc1cc2ncc(C#N)c(Nc3ccc(OCc4ncccc4C)cc3Br)c2cc1NC(=O)CCCN(C)C [Example 74],> 7.00,–,–
> 7.00,CCOc1cc2ncc(C#N)c(Nc3cc(Cl)c(OCc4ncccc4C)cc3Cl)c2cc1NC(=O)CCCN(C)C [Example 75],> 7.00,–,–
> 7.00,CCOc1cc2ncc(C#N)c(Nc3ccc(OCc4nc(Br)ccc4C)c(Cl)c3)c2cc1NC(=O)CCCN(C)C [Example 76],> 7.00,–,–
> 7.00,CCOc1cc2ncc(C#N)c(Nc3ccc(OCc4nc(Br)ccc4C)cc3Cl)c2cc1NC(=O)CCCN(C)C [Example 77],> 7.00,–,–
> 7.00,CCOc1cc2ncc(C#N)c(Nc3cc(Cl)c(OCc4ncccc4C)cc3C)c2cc1NC(=O)CCCN(C)C [Example 78],> 7.00,–,–
> 7.00,CCOc1cc2ncc(C#N)c(Nc3cc(Cl)c(OCc4ncccc4C)cc3Br)c2cc1NC(=O)CCCN(C)C [Example 79],> 7.00,–,–
–,CCOc1cc2ncc(C#N)c(Nc3ccc(OCc4ncccc4C)c(OC(F)(F)F)c3)c2cc1NC(=O)CCCN(C)C [Example 80],6.00 to 7.00,6.00 to 7.00,–
> 7.00,CCOc1cc2ncc(C#N)c(Nc3ccc(OCc4ncccc4C(F)(F)F)cc3Cl)c2cc1NC(=O)CCCN(C)C [Example 81],> 7.00,–,–
–,CCOc1cc2ncc(C#N)c(Nc3ccc(OCc4ncccc4C(=O)OC)cc3Cl)c2cc1NC(=O)CCCN(C)C [Example 82],6.00 to 7.00,6.00 to 7.00,–
> 7.00,CCOc1cc2ncc(C#N)c(Nc3ccc(OCc4ncccc4CO)cc3Cl)c2cc1NC(=O)CCCN(C)C [Example 83],> 7.00,–,–
> 7.00,"CCOc1cc2ncc(C#N)c(Nc3ccc(OCc4ncccc4C)c(Cl)c3)c2cc1NC(C)=O [Example 84, N-(4-(3-chloro-4-((3-methylpyridin-2-yl)methoxy)phenylamino)-3-cyano-7-ethoxyquinolin-6-yl)acetamide]",> 7.00,–,–
–,CCOc1cc2ncc(C#N)c(Nc3ccc(OCc4ccccn4)c(Cl)c3)c2cc1NC(C)=O [Example 85],> 7.00,5.00 to 6.00,–

SMILES,"pIC50 [2, 4]","pIC50 [1, 3]",pIC50 [2],pIC50 [1]
CCOc1cc2ncc(C#N)c(Nc3ccc(OCc4ncccc4C)c(F)c3)c2cc1NC(=O)CCCN(C)C [Example 22],> 7.00,> 7.00,–,–
CCOc1cc2ncc(C#N)c(Nc3ccc(OCc4ncccc4C)cc3C)c2cc1NC(=O)CCCN(C)C [Example 31],> 7.00,> 7.00,–,–
CCOc1cc2ncc(C#N)c(Nc3ccc(OCc4ncccc4Cl)c(Cl)c3)c2cc1NC(=O)CCCN(C)C [Example 35],> 7.00,> 7.00,–,–

# Source: US10774068B2, “Composition and methods for inhibiting mammalian sterile 20-like kinase 1” (The Scripps Research Institute, priority 2015, dated 2020)
